The numbers were not newly measured in patent US7198796B2, “Antifungal parenteral products” (Vicuron Pharmaceuticals Inc., priority 2002, dated 2007), which cites them from elsewhere.

*1 amine or outer side, *2 acyl side, *3 side chain or, on linkers, in order; H or OH if unused. Where a SMILES comes first, the peptide text is derived from it. Bridges are numbered along the chain shown (N, C = ends). [ ]: non-standard residue; d: D form. The star is where a group is joined. ξ: configuration not given here. pTerphenylCO(4''-OnC5H11) = CCCCCOc1ccc(-c2ccc(-c3ccc(C(=O)*)cc3)cc2)cc1; ξOrn(4R-OH,5R-OH) = O=C(C(C[C@@H](O)[C@@H](O)N[*:3])N[*:1])[*:2]; hTyr(3S-OH,4S-OH) = N[C@H](C(=O)O)[C@H](O)[C@@H](O)c1ccc(O)cc1; Pro(3S-OH,4S-Me) = C[C@H]1CN[C@H](C(=O)O)[C@H]1O; Hyp = O=C(O)[C@@H]1C[C@@H](O)CN1

For `CCCCCOc1ccc(-c2ccc(-c3ccc(C(=O)NC4C[C@@H](O)[C@@H](O)NC(=O)[C@@H]5[C@@H](O)[C@@H](C)CN5C(=O)[C@H]([C@@H](C)O)NC(=O)[C@H]([C@H](O)[C@@H](O)c5ccc(O)cc5)NC(=O)[C@@H]5C[C@@H](O)CN5C(=O)[C@H]([C@@H](C)O)NC4=O)cc3)cc2)cc1` (stereo partly drawn) [anidulafungin, 1-[(4R,5R)-4,5-Dihydroxy-N(2)-[[4″-(pentyloxy)[1,1′:4′,1″-terphenyl]-4-yl]carbonyl]-L-ornithine]echinocandin B] ({pTerphenylCO(4''-OnC5H11)}-[ξOrn(4R-OH,5R-OH)]T[Hyp][hTyr(3S-OH,4S-OH)]T[Pro(3S-OH,4S-Me)]; lactam 1-C), the water solubility entry is “less than 0.1 mg/ml”.
